Data: ChEMBL document CHEMBL5518193, “Discovery of N-alkyl-N-benzyl thiazoles as novel TRPC antagonists for the treatment of glioblastoma multiforme” (Eur J Med Chem, 2024)

Key:
[1] = target: T1, Short transient receptor potential channel 6 (Mus musculus) (UniProt Q61143); assay: Antagonist activity at mouse TRPC6 stably expressed in HEK293 cells assessed as inhibition of calcium influx at 10 uM by calcium fluorescence assay relative to control; format: cell-based; details: filed as antagonist
T1 sequence (whole entry): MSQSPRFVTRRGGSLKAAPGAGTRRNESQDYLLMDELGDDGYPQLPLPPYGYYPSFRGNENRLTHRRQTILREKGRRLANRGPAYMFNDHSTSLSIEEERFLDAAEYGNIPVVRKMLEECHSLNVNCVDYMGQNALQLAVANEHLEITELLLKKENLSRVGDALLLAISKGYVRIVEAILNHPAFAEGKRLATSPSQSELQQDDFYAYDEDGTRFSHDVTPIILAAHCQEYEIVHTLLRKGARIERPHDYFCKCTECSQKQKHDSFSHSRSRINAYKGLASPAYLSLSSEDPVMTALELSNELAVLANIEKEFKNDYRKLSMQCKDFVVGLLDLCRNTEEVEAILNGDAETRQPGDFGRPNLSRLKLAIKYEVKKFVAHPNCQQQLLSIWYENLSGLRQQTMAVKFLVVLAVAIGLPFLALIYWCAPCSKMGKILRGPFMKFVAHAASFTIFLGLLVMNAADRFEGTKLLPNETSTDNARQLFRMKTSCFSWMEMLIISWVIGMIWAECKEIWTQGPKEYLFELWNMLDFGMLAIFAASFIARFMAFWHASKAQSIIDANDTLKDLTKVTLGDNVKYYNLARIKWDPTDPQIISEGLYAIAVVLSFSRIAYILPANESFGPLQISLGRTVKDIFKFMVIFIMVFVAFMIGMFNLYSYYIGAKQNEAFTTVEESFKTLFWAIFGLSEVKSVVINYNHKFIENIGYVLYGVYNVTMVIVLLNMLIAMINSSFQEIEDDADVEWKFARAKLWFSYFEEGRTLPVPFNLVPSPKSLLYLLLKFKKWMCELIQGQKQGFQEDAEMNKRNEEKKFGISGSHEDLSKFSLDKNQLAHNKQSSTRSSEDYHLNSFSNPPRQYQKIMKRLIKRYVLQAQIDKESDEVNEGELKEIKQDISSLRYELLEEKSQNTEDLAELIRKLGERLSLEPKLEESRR

[2] = Apparent clearance in BALB/c mouse at 12.5 mg/kg, ip administered as liposome encapsulated form and measured upto 24 hrs by LC-MS/MS analysis; format: ADME, organism-based; details: in vivo, read-out: CL(app) (converted)
[3] = Terminal half life in BALB/c mouse at 12.5 mg/kg, ip administered as liposome encapsulated form and measured upto 24 hrs by LC-MS/MS analysis; format: ADME, organism-based; details: in vivo, read-out: beta t1/2 (converted)
[4] = Selectivity index, ratio of IC50 for human MKN-45 cells to IC50 for human U87 cells; format: functional
[5] = Apparent clearance in BALB/c mouse at 50 mg/kg, ip administered as liposome encapsulated form and measured upto 24 hrs by LC-MS/MS analysis; format: ADME, organism-based; details: in vivo, read-out: CL(app) (converted)
[6] = target: T2, Short transient receptor potential channel 7 (Homo sapiens, UniProt Q9HCX4); assay: Antagonist activity at human TRPC7 stably expressed in HEK293 cells inhibition of calcium influx by calcium fluorescence assay; format: cell-based
T2 sequence (Q9HCX4 whole entry): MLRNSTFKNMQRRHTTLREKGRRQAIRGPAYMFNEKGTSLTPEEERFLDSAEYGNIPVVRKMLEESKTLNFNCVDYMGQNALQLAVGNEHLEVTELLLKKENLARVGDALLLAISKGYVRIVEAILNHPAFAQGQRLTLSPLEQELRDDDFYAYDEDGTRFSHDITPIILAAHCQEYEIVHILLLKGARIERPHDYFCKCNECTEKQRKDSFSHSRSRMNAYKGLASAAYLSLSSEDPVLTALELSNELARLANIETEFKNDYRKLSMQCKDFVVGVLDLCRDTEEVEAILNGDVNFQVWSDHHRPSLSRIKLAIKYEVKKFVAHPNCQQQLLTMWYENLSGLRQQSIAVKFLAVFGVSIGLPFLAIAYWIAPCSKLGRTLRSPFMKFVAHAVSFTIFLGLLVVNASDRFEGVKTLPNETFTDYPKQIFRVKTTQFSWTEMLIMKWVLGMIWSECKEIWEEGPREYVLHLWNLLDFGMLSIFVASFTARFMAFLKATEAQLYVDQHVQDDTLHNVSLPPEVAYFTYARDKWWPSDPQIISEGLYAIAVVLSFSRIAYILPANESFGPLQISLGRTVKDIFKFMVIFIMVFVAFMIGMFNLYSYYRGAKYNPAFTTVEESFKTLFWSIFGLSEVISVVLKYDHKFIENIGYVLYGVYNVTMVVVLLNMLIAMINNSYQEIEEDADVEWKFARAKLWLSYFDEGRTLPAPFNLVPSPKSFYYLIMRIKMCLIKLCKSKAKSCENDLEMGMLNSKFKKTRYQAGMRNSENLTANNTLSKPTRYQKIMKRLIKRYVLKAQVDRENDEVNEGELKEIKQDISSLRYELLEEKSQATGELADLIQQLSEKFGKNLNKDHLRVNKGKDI

[7] = Cmax in BALB/c mouse at 50 mg/kg, ip administered as liposome encapsulated form and measured upto 24 hrs by LC-MS/MS analysis; format: ADME, organism-based; details: in vivo
A549 = assay: Antiproliferative activity against human A549 cells assessed as reduction in cell viability incubated for 72 hrs by MTT assay; format: functional, cell-based; details: A549, 72 h
[8] = Tmax in BALB/c mouse at 25 mg/kg, ip administered as liposome encapsulated form and measured upto 24 hrs by LC-MS/MS analysis; format: ADME, organism-based; details: in vivo

NCCN(Cc1ccc2ccccc2c1)c1nc(C(=O)Nc2ccc(O)cc2)cs1
inhibition [1]: 100% | CL/F [2]: 74.6 mL/min/kg | half-life [3]: 6.8 h | Ratio IC50 [4]: 2 | CL/F [5]: 49.6 mL/min/kg | IC50 [6]: 3.4 µM | Cmax [7]: 2910 ng/mL | IC50 (A549): 21.1 µM | Tmax [8]: 4 h
